Data as given in patent US7332177B1, “Method and formulation for treating resistance to antihypertensives and related conditions” (Neurim Pharmaceuticals (1991) Ltd., priority 2000, dated 2008).

How the values were obtained:
[1] = 2 mg/os daily at 18:00 h for 2 months; adult men; cited from earlier work
[2] = Experiment 1: morning blood pressure after 3 weeks of controlled-release melatonin in elderly insomnia patients; type: in vivo, human; details: hypertensive elderly subjects; administration in the evening
Experimental: All patients, who had been insomniacs, were diagnosed according to DSM IV. They consisted of 86 men and 96 women, age 72±9 years. […] During the last week of the treatment period, BP was assessed at the morning and comparisons were made between placebo or melatonin treatments, and baseline.

rabbit aorta = details: high concentrations 10-1000 μM; in vitro; cited from earlier work

Compound: COc1ccc2[nH]cc(CCNC(C)=O)c2c1 [melatonin]
- mean serum melatonin levels [1]: marked elevation
- daytime systolic and diastolic blood pressure [2]: decreased
- Vasorelaxing action (rabbit aorta): observed
